In ChEMBL document CHEMBL1129376, “Localizing antithrombotic and vasodilatory activity with a novel, ultrafast nitric oxide donor” (J Med Chem, 1996):
One block for each compound: values may come before it.

Tests used:
Ovis aries [1] = test: Intravenous dose of compound that lowered systemic arterial pressure (SAP) in ovine pulmonary hypertension model; Range is 0.8-13 nM/kg min; format: functional, organism-based; details: Artery
Ovis aries [2] = test: Intravenous dose of compound that lowered pulmonary arterial pressure (PAP) in ovine pulmonary hypertension model; Range is 0.8-13 nM/kg min; format: functional, organism-based; details: Artery
Ovis aries [3] = test: Pulmonary arterial pressure (PAP) in sheep on i.v. administration of 24 nM/ kg min; format: functional, Artery
Ovis aries [4] = test: Intravenous dose that lowered pulmonary arterial pressure withouteffect on systemic hemodynamics in sheep with drug-induced pulmonary hypertension; format: functional, Artery
[5] = Half life of compound for dissociation in proline and NO; format: ADME
Ovis aries [6] = test: Intravenous dose of compound that lowered systemic arterial pressure following in ovine pulmonary hypertension model; format: functional, Artery
[7] = Rate constant of compound for dissociation in proline and NO; format: ADME
[8] = Half life of compound for dissociation in DETA and NO; format: ADME

Compound: SODIUM NITROPRUSSIDE
Dose (nM min-1 kg-1) (Ovis aries [1]): 13
Dose (nM min-1 kg-1) (Ovis aries [2]): 13

T1/2 [5]: 1.8 s
Rate constant [7]: 0.39 s⁻¹
Compound: O=C([O-])[C@H]1CCCN1/[N+]([O-])=N/[O-].[Na+].[Na+]
PAP (Ovis aries [3]): 9 mmHg
Dose (Ovis aries [4]): 24 nM/min/kg
Dose (Ovis aries [6]): 48 nM/min/kg

half-life [8]: 20 h
Compound: NCCN(CCN)/[N+]([O-])=N/O
